Experimental findings from patent US20250152584A1, “NLRP3 INFLAMMASOME INHIBITOR AND USES THEREOF” (TransThera Sciences (Nanjing), Inc., priority 2022, published 2025) are described below.

Holding throughout (type): in vivo
Data set [1] in a line: Pharmacokinetic study in SD male rats. The following applies: rat, plasma; for clearance: read-out: Cl—obs iv (clearance rate) (converted); for Vd: read-out: Vss iv (volume of distribution); for bioavailability: iv 1.0 mg/kg / po 5.0 mg/kg, read-out: F % (absolute bioavailability); for Tmax: median, read-out: Tmax po (peak time of plasma concentration); for Cmax: read-out: Cmax po (peak concentration). On the procedure:
Experimental Example 3: Pharmacokinetic Study of Compounds in SD Male Rats
Compound 54, Compound 55, Compound 174, Compound 173, and Compound 264 were prepared into solutions with a mixed solvent formulated from 5% dimethyl sulfoxide, 20% (30% solutol) and 75% normal saline, respectively; the solution of each compound was administered to SD male rats by gavage at a dose of 5.0 mg/kg; and the time points for blood collection were: 15 min, 30 min, 1 h, 2 h, 4 h, 6 h, 8 h, 10 h and 24 h. The solution of the compound was administered to male SD rats by intravenous bolus at a dose of 1.0 mg/kg, and the time points for blood collection were as follows: 5 min, 15 min, 30 min, 1 h, 2 h, 4 h, 6 h, 8 h, 10 h, and 24 h.
On the day before administration, the jugular vein of each animal was cannulated; and after administration, about 300 μL of blood was collected through the jugular vein, and then placed in an anticoagulant tube containing EDTA-K2. Blood samples were centrifuged at 12,000 rpm for 10 min at 4° C. to obtain plasma samples, and plasma was prepared within 30 min after blood collection. The plasma was stored in a −80° C. freezer before testing.
• 1. The samples were taken from the −80° C. freezer, thawed naturally at room temperature, and then vortexed for 5 min. • 2. 30 μL of a plasma sample was precisely pipetted into a 1.5 mL centrifuge tube. • 3. 750 μL of an internal standard working solution (the acetonitrile solution of tolbutamide) at a concentration of […] was added and mixed well. • 4. After vortexing for 5 min, the mixture was centrifuged at 12,000 rpm for 5 min. • 5. 50 μL of the supernatant was accurately pipetted into a 96-well plate preloaded with water at 150 μL/well. • 6. Vortexing was performed for 5 min for sufficient mixing, and LC-MS/MS analysis was then conducted.
(§1) The results of the concentrations of the compounds under test were output using Analyst 1.6.3 of AB. Parameters such as mean, standard deviation, coefficient of variation was calculated by Microsoft Excel (parameters directly output by Analyst 1.6.3 needed no calculation), and PK parameters were calculated by WinNonlin Phenoix 8.2 software NCA (Tmax as the median).

Data set [2] can be described thus: Pharmacokinetic study in beagles. The following applies: beagle, dog, plasma, male beagles; for Cmax: read-out: Cmax po (peak concentration); for Tmax: read-out: Tmax po (peak time of plasma concentration); for clearance: read-out: Cl—obs iv (clearance rate) (converted); for Vd: read-out: Vss iv (volume of distribution); for bioavailability: iv 1.0 mg/kg / po 1.0 mg/kg, read-out: F % (absolute bioavailability). On the procedure:
Experimental Example 4: Pharmacokinetic Study of Compounds in Beagles
Compound 174 was prepared into a solution with a mixed solvent formulated from 5% dimethyl sulfoxide, 20% (30% solutol) and 75% normal saline; the solution of this compound was administered to male beagles by gavage at a dose of 1.0 mg/kg; and the time points for blood collection were: 15 min, 30 min, 1 b, 2 h, 4 h, 6 b, 8 h, 10 h and 24 h. The solution of the compound was administered to male beagles by intravenous bolus at a dose of 1.0 mg/kg, and the time points for blood collection were as follows: 5 min, 15 min, 30 min, 1 h, 2 h, 4 h, 6 h, 8 h, 10 h, and 24 h.
Compound 177 and Compound 195 were prepared into solutions with a mixed solvent formulated from 5% dimethyl sulfoxide, 20% (30% solutol) and 75% normal saline, respectively; the solutions of these compounds were administered to male beagles by gavage at a dose of 1.0 mg/kg; and the time points for blood collection were: 15 min, 30 min, 1 h, 2 h, 4 h, 6 h, 8 h, 10 h and 24 h. The solution of the compound was administered to male beagles by intravenous bolus at a dose of 1.0 mg/kg, and the time points for blood collection were as follows: 5 min, 15 min, 30 min, 1 h, 2 h, 4 h, 6 h, 8 h, 10 h, and 24 h.
Approximately 400 μL of blood was collected through the medial cephalic vein of the forelimb and placed in an anticoagulant tube containing EDTA-K2. Blood samples were centrifuged at 12,000 rpm for 10 min at 4° C. to obtain plasma samples, and plasma was prepared within 30 min after blood collection. The plasma was stored in a −80° C. freezer before testing.

Data set [3] in a line: Pharmacokinetic study in C57BL/6J mice. The following applies: mouse, plasma, C57BL/6J female mice. On the procedure: Experimental Example 2: Pharmacokinetic Study of Compounds in C57BL/6J Mice
Compound 100, Compound 54, Compound 174, Compound 179, and Compound 253 were prepared into solutions with a mixed solvent formulated from 5% dimethyl sulfoxide, 20% (30% solutol) and 75% normal saline, respectively; the solution of each compound was administered to C57BL/6J female mice by gavage at a dose of 10 mg/kg; and the time points for blood collection were: 15 min, 30 min, 1 h, 2 h, 4 h, 6 h, 8 h and 24 h. The solution of the compound was administered to C57BL/6J female mice by intravenous bolus at a dose of 5 mg/kg, and the time points for blood collection were as follows: 5 min, 15 min, 30 min, 1 h, 2 h, 4 h, 6 h, 8 h, and 24 h.
Compound 1 was prepared into a solution with a mixed solvent formulated from 5% DME, 20% (30% solutol) and 75% normal saline; the solution of this compound was administered to C57BL/6J female mice by gavage at a dose of 10 mg/kg, and the time points for blood collection were: 15 min, 30 min, 1 h, 2 h, 4 h, 6 h, 8 h, and 24 h. The solution of the compound was administered to C57BL/6J female mice by intravenous bolus at a dose of 5 mg/kg, and the time points for blood collection were as follows: 5 min, 15 min, 30 min, 1 h, 2 h, 4 h, 6 h, 8 h, and 24 h.
Compound 195 was prepared into a solution with a mixed solvent formulated from 5% dimethyl sulfoxide, 20% PEG400 and 75% normal saline; the solution of this compound was administered to C57BL/6J female mice by gavage at a dose of 10 mg/kg; and the time points for blood collection were 15 min, 30 min, 1 h, 2 h, 4 h, 6 h, 8 h, and 24 b. The solution of the compound was administered to C57BL/6J female mice by intravenous bolus at a dose of 5 mg/kg, and the time points for blood collection were as follows: 5 min, 15 min, 30 min, 1 h, 2 b, 4 h, 6 h, 8 h, and 24 h.
Approximately 100 μL of blood was collected through the retroorbital venous plexus, and was then placed in an anticoagulant tube containing EDTA-K2. Blood samples were centrifuged at 12,000 rpm for 10 min at 4° C. to obtain plasma samples, and plasma was prepared within 30 min after blood collection. The plasma was stored in a −80° C. freezer before testing.
• 1. The samples were taken from the −80° C. freezer, thawed naturally at room temperature, and then vortexed for 5 min • 2. 10 μL of a plasma sample was precisely pipetted from different individuals into a 1.5 mL centrifuge tube. • 3. 300 μL of an internal standard working solution (the acetonitrile solution of tolbutamide) at a concentration of […] was added and mixed well. • 4. After vortexing for 5 min, the mixture was centrifuged at 12,000 rpm for 5 min. • 5. 50 μL of the supernatant was accurately pipetted into a 96-well plate preloaded with water at 150 μL/well. • 6. Vortexing was performed for 5 min for sufficient mixing, and LC-MS/MS analysis was then conducted.
as §1

The mark [4] stands for this setting: intravenous bolus 1.0 mg/kg, read-out: AUClast iv (area under the drug-time curve for 0-24 h).
[5] abbreviates: intravenous bolus 1.0 mg/kg, read-out: tz1/2 iv (terminal elimination half-life) (converted).
[6] abbreviates: po, gavage 5.0 mg/kg, read-out: AUClast po (area under the drug-time curve for 0-24 h).
Setting [7] is: po, gavage 5.0 mg/kg, read-out: tz1/2 po (terminal elimination half-life) (converted).
The mark [8] stands for this setting: po, gavage 1.0 mg/kg, read-out: AUClast po (area under the drug-time curve for 0-24 h).
The mark [9] stands for this setting: po, gavage 1.0 mg/kg, read-out: tz1/2 po (terminal elimination half-life) (converted).

Consider `C#Cc1ccc(-c2nnc(N[C@H]3C[C@@](C)(O)C3)cc2C)c(O)c1` [Compound 55, 5-ethynyl-2-(6-(((cis)-3-hydroxyl-3-methylcyclobutyl)amino)-4-methylpyridazin-3-yl)phenol], for which the AUC(0-t) in data set [1] (setting [4]) stood at 5130 ng·h/mL. In data set [1] (intravenous bolus 1.0 mg/kg), the clearance (usually a measure of how efficiently the substance is removed, as volume per time) is 3.17 mL/min/kg and the Vd was found to be 1.12 L/kg. Also, the half-life in data set [1] (setting [5]) was 314 min. The bioavailability in data set [1] came out at 163%. In addition, in data set [1] (po, gavage 5.0 mg/kg), the Tmax stood at 2 h and the Cmax worked out at 3050 ng/mL. Further, in data set [1] (setting [6]), the AUC(0-t) is 38500 ng·h/mL. The half-life in data set [1] (setting [7]) was 431 min.
In the case of `C#Cc1ccc(-c2nnc(N[C@@H]3CCCN(C)C3)cc2C2CC2)c(O)c1` [Compound 173, (R)-2-(4-cyclopropyl-6-((1-methylpiperidin-3-yl)amino)pyridazin-3-yl)-5-ethynylphenol], the AUC(0-t) turned out to be 1100 ng·h/mL in data set [1] (setting [4]) and 4690 ng·h/mL in data set [1] (setting [6]). The clearance in data set [1] (intravenous bolus 1.0 mg/kg) was 14.3 mL/min/kg. Also, the Vd in data set [1] (intravenous bolus 1.0 mg/kg) was 6.92 L/kg. Also, the values for the half-life in data set [1] (setting [5]) and in data set [1] (setting [7]) were 368 min and 343 min, respectively. The bioavailability in data set [1] turned out to be 85.6%. Moreover, the Tmax in data set [1] (po, gavage 5.0 mg/kg) amounted to 4 h. For the same compound, the Cmax in data set [1] (po, gavage 5.0 mg/kg) stood at 395 ng/mL.
As to `C#Cc1ccc(-c2nnc(N[C@@H]3CCCN(C)C3)nc2C)c(O)c1` [Compound 177], in data set [2] (setting [8]), the AUC(0-t) is 1920 ng·h/mL. In data set [2] (po, gavage 1.0 mg/kg), the Cmax was 293 ng/mL and the Tmax was determined as 1 h. For the same compound, in data set [2] (setting [9]), the half-life is 354 min. In addition, in data set [2] (setting [4]), the AUC(0-t) came to 1240 ng·h/mL. Further, in data set [2] (intravenous bolus 1.0 mg/kg), the clearance is 13 mL/min/kg and the Vd came to 5.53 L/kg. The half-life in data set [2] (setting [5]) is 335 min. The bioavailability in data set [2] was 154%.
On to `CC#Cc1ccc(-c2nnc(N[C@@H]3CCCN(C)C3)nc2C)c(O)c1` [Compound 195], for which the Tmax in data set [3] (po, gavage 10 mg/kg, median, read-out: Tmax po (peak time of plasma concentration)) turned out to be 1 h; in data set [2] (po, gavage 1.0 mg/kg), 4 h. Further, the AUC(0-t) in data set [3] (po, gavage 10 mg/kg, read-out: AUClast po (area under the drug-time curve for 0-24 h)) stood at 7860 ng·h/mL; in data set [3] (intravenous bolus 5 mg/kg, read-out: AUClast iv (area under the drug-time curve for 0-24 h)), 3580 ng·h/mL; in data set [2] (setting [8]), 1900 ng·h/mL; in data set [2] (setting [4]), 2320 ng·h/mL. Moreover, the Cmax is 1230 ng/mL in data set [3] (po, gavage 10 mg/kg, read-out: Cmax po (peak concentration)) and 206 ng/mL in data set [2] (po, gavage 1.0 mg/kg). Moreover, the half-life in data set [3] (po, gavage 10 mg/kg, read-out: tz1/2 po (terminal elimination half-life) (converted)) is 187 min; in data set [3] (intravenous bolus 5 mg/kg, read-out: tz1/2 iv (terminal elimination half-life) (converted)), 233 min; in data set [2] (setting [9]), 660 min; in data set [2] (setting [5]) it was 490 min. The clearance in data set [3] (intravenous bolus 5 mg/kg, read-out: Cl—obs iv (clearance rate) (converted)) is 23.2 mL/min/kg; in data set [2] (intravenous bolus 1.0 mg/kg), 6.58 mL/min/kg. The Vd in data set [3] (intravenous bolus 5 mg/kg, read-out: Vss iv (volume of distribution)) amounted to 5.14 L/kg; in data set [2] (intravenous bolus 1.0 mg/kg), 3.74 L/kg. In addition, the bioavailability in data set [3] (iv 5 mg/kg / po 10 mg/kg, read-out: F % (absolute bioavailability)) turned out to be 110%; in data set [2], 90.7%.
`CC#Cc1ccc(-c2nnc(N[C@@H]3CCCN(C)C3)cc2C2CC2)c(O)c1` [Compound 264, (R)-2-(4-cyclopropyl-6-((1-methylpiperidin-3-yl)amino)pyridazin-3-yl)-5-(propyl-1-alkyn-1-yl)phenol]: the AUC(0-t) in data set [1] (setting [4]) came to 811 ng·h/mL. In data set [1] (intravenous bolus 1.0 mg/kg), the clearance was 17.5 mL/min/kg and the Vd was found to be 12.5 L/kg. Besides, in data set [1] (setting [5]), the half-life is 533 min. The bioavailability in data set [1] amounted to 72.8%. Besides, in data set [1] (po, gavage 5.0 mg/kg), the Tmax is 4 h and the Cmax was 230 ng/mL. In addition, the AUC(0-t) in data set [1] (setting [6]) came out at 3120 ng·h/mL. Moreover, the half-life in data set [1] (setting [7]) is 436 min.
